Key:
Cell line = test: Inhibitory concentration against TNF-alpha release in LPS-stimulated human whole blood; type: functional, cell-based
Interstitial collagenase = target: T1, Interstitial collagenase (Homo sapiens, UniProt P03956); test: Inhibitory concentration against Matrix metalloprotease-1 (MMP-1)
T1 sequence (P03956 whole entry): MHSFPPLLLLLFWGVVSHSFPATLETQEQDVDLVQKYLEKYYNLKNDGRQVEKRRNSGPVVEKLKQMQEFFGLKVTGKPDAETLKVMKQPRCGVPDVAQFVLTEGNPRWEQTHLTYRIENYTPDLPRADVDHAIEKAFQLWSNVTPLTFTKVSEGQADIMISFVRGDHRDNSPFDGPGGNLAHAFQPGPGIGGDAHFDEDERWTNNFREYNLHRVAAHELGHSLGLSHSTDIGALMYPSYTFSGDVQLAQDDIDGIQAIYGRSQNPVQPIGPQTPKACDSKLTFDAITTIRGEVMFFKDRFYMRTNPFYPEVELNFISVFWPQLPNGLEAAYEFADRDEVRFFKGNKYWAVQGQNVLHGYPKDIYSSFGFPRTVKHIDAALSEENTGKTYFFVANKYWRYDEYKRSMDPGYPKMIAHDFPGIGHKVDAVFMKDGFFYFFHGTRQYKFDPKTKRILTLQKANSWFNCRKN

[1] = target: Disintegrin and metalloproteinase domain-containing protein 17 (Homo sapiens, UniProt P78536); test: Inhibitory concentration against TNF-alpha converting enzyme
Sequence of Disintegrin and metalloproteinase domain-containing protein 17 (P78536 whole entry, the tested form may be a part): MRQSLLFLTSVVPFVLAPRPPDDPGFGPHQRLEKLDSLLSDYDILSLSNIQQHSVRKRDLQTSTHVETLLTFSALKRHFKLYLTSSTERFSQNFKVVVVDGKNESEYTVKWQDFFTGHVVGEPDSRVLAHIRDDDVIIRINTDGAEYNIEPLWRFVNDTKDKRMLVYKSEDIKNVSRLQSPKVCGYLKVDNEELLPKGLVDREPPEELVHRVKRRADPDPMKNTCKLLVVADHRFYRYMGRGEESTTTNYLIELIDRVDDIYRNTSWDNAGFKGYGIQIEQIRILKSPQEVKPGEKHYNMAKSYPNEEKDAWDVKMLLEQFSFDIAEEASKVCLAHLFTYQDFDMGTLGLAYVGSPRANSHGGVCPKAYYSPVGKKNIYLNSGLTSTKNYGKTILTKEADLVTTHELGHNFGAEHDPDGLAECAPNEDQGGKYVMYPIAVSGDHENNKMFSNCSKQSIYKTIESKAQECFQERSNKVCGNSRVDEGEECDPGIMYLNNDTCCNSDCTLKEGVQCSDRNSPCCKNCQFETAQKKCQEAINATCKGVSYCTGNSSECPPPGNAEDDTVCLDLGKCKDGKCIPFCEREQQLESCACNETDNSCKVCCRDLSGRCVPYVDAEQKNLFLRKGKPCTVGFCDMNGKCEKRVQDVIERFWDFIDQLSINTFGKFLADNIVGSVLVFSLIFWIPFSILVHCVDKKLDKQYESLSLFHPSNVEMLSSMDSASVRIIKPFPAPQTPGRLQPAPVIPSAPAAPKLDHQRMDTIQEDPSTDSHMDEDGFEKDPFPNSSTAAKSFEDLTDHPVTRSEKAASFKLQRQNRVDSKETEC

Collagenase 3 = Collagenase 3 (Homo sapiens, UniProt P45452); test: Inhibitory concentration against Matrix metalloprotease-13 (MMP-13)
[2] = Inhibitory concentration against Aggrecanase
[3] = Percent inhibition against Aggrecanase at 500 nM

SMILES	IC50 (Cell line)	IC50 (Interstitial collagenase)	IC50 [1]	IC50 (Collagenase 3)	IC50 [2]	inhibition [3]
CC1(C)C[C@@H](O)CN(S(=O)(=O)c2ccc(OCc3ccc(Cl)cc3Cl)cc2)[C@H]1C(=O)NO	31000 nM	430 nM	19 nM	3 nM	2.1 nM	–
Cc1ccc(COc2ccc(S(=O)(=O)N3C[C@H](O)CC(C)(C)[C@@H]3C(=O)NO)cc2)cc1	19200 nM	198 nM	11 nM	1.2 nM	–	19%
CC1(C)C[C@@H](O)CN(S(=O)(=O)c2ccc(OCc3nccc4ccccc34)cc2)[C@H]1C(=O)NO	2420 nM	290 nM	10 nM	53 nM	> 100 nM	–
CC1(C)C[C@@H](O)CN(S(=O)(=O)c2ccc(OCc3ccccc3Br)cc2)[C@H]1C(=O)NO	8900 nM	715 nM	11 nM	8 nM	16 nM	–
Cc1ccc(F)cc1COc1ccc(S(=O)(=O)N2C[C@H](O)CC[C@@H]2C(=O)NO)cc1	1400 nM	5100 nM	6.2 nM	2.1 nM	145 nM	–
CC1(C)C[C@@H](O)CN(S(=O)(=O)c2ccc(OCc3ccnc4ccccc34)cc2)[C@H]1C(=O)NO	950 nM	170 nM	–	7.8 nM	15 nM	–
CC1(C)C[C@@H](O)CN(S(=O)(=O)c2ccc(OCc3ccc(Br)cc3)cc2)[C@H]1C(=O)NO	7700 nM	100 nM	10 nM	1.4 nM	> 100 nM	–
Cc1cnsc1COc1ccc(S(=O)(=O)N2C[C@H](O)CC(C)(C)[C@@H]2C(=O)NO)cc1	4950 nM	–	16 nM	–	–	55%
Cc1ccccc1COc1ccc(S(=O)(=O)N2C[C@H](O)CC(C)(C)[C@@H]2C(=O)NO)cc1	4900 nM	690 nM	7.3 nM	14 nM	38 nM	–
Cc1c(F)cccc1COc1ccc(S(=O)(=O)N2C[C@H](O)CC(C)(C)[C@@H]2C(=O)NO)cc1	2880 nM	679 nM	17 nM	4.3 nM	3.9 nM	–
CC1(C)C[C@@H](O)CN(S(=O)(=O)c2ccc(OCc3ccncc3Cl)cc2)[C@H]1C(=O)NO	10200 nM	1100 nM	–	19 nM	18 nM	–
Cc1nscc1COc1ccc(S(=O)(=O)N2C[C@H](O)CC(C)(C)[C@@H]2C(=O)NO)cc1	5200 nM	–	12 nM	–	–	76%
Cc1cc(F)ccc1COc1ccc(S(=O)(=O)N2C[C@H](O)CC(C)(C)[C@@H]2C(=O)NO)cc1	5480 nM	255 nM	5.2 nM	3.5 nM	2.7 nM	–
CC1(C)C[C@@H](O)CN(S(=O)(=O)c2ccc(OCc3ccc(F)cc3Cl)cc2)[C@H]1C(=O)NO	10200 nM	592 nM	–	0.5 nM	–	–
CC(C)c1ccccc1COc1ccc(S(=O)(=O)N2C[C@H](O)CC(C)(C)[C@@H]2C(=O)NO)cc1	1800 nM	2300 nM	12 nM	188 nM	–	78%
CCc1ccccc1COc1ccc(S(=O)(=O)N2C[C@H](O)CC(C)(C)[C@@H]2C(=O)NO)cc1	1100 nM	1500 nM	6.7 nM	36 nM	67 nM	–
Cc1ccc(F)cc1COc1ccc(S(=O)(=O)N2C[C@H](O)CC(C)(C)[C@@H]2C(=O)NO)cc1	3450 nM	790 nM	7.3 nM	6.5 nM	40 nM	–
CC1(C)C[C@@H](O)CN(S(=O)(=O)c2ccc(OCc3cccc(Br)c3)cc2)[C@H]1C(=O)NO	19000 nM	–	15 nM	–	–	57%
Cc1cccc(COc2ccc(S(=O)(=O)N3C[C@H](O)CC(C)(C)[C@@H]3C(=O)NO)cc2)c1	25800 nM	773 nM	12 nM	2.8 nM	> 100 nM	–
Cc1ncccc1COc1ccc(S(=O)(=O)N2C[C@H](O)CC(C)(C)[C@@H]2C(=O)NO)cc1	2000 nM	–	6.7 nM	–	91 nM	–

Source: ChEMBL document CHEMBL1145277, “Discovery of 3,3-dimethyl-5-hydroxypipecolic hydroxamate-based inhibitors of aggrecanase and MMP-13” (Bioorg Med Chem Lett, 2005)
